Source: patent US11020398B2, “Amino-pyrrolopyrimidinone compounds and methods of use thereof” (ArQule, Inc., priority 2016, dated 2021)
pIC50: −log10 of the molar value.

What follows are molecules tested against phosphorylated form of full length BTK (active BTK) (Homo sapiens (Human), UniProt Q06187) (assay: Mobility shift assay (MSA, Caliper LabChip), active BTK assay). Settings: Assay type B (MSA using active BTK).
Format: biochemical
Experimental: The active BTK assay consists of phosphorylated form of full length BTK. […] The enzyme inhibitor complexes is incubated, before the kinase activation reaction is initiated.
Mobility Shift Assay (MSA)
The active BTK assay consisted of phosphorylated form of full length BTK. […] The enzyme inhibitor complexes was incubated for 30 minutes at the room temperature and the kinase activation reaction was initiated by the addition of 1 μM Srctide peptide substrate and […].

Chain of phosphorylated form of full length BTK (active BTK) (Q06187 whole entry): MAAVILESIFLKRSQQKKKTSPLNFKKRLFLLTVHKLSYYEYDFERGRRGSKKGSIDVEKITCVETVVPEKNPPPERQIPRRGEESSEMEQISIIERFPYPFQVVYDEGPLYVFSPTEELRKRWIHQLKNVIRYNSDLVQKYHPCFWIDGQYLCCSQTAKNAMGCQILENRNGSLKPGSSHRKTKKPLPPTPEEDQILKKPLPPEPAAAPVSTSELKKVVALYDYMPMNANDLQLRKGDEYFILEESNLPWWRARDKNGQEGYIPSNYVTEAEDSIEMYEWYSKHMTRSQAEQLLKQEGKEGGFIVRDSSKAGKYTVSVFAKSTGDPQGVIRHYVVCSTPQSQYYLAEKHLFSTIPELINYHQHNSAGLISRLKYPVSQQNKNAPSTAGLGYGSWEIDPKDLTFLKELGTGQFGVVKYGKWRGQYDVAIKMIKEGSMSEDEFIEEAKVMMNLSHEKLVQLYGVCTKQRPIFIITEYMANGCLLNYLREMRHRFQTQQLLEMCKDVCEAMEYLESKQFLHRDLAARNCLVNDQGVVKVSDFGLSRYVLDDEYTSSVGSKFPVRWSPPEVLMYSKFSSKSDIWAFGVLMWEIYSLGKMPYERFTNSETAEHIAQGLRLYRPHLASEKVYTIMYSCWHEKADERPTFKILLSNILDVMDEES

Structure (SMILES)	pIC50
COC[C@]1(O)CC[C@@H](Nc2ncnc3[nH]cc(C(=O)c4ccccc4Cl)c23)CC1 [Compound I-108, (2-chlorophenyl)(4-((cis-4-hydroxy-4-(methoxymethyl)cyclohexyl)amino)-7H-pyrrolo[2,3-d]pyrimidin-5-yl)methanone]	8.15
COC1CN([C@H]2CC[C@@H](Nc3ncnc4[nH]cc(C(=O)c5ccccc5Cl)c34)CC2)C1 [Compound I-109, (2-chlorophenyl)(4-((cis-4-(3-methoxyazetidin-1-yl)cyclohexyl)amino)-7H-pyrrolo[2,3-d]pyrimidin-5-yl)methanone]	8.49
COC1CN([C@H]2CC[C@H](Nc3ncnc4[nH]cc(C(=O)c5ccccc5Cl)c34)CC2)C1 [Compound I-110, (2-chlorophenyl)(4-((trans-4-(3-methoxyazetidin-1-yl)cyclohexyl)amino)-7H-pyrrolo[2,3-d]pyrimidin-5-yl)methanone]	7.80
CC1(O)CN([C@H]2CC[C@@H](Nc3ncnc4[nH]cc(C(=O)c5ccccc5Cl)c34)CC2)C1 [Compound I-111, (2-chlorophenyl)(4-((cis-4-(3-hydroxy-3-methylazetidin-1-yl)cyclohexyl)amino)-7H-pyrrolo[2,3-d]pyrimidin-5-yl)methanone]	8.52
CC1(O)CN([C@H]2CC[C@H](Nc3ncnc4[nH]cc(C(=O)c5ccccc5Cl)c34)CC2)C1 [Compound I-112, (2-chlorophenyl)(4-((trans-4-(3-hydroxy-3-methylazetidin-1-yl)cyclohexyl)amino)-7H-pyrrolo[2,3-d]pyrimidin-5-yl)methanone]	7.74
CC1(N)CN([C@H]2CC[C@@H](Nc3ncnc4[nH]cc(C(=O)c5ccccc5Cl)c34)CC2)C1 [Compound I-113, (4-((cis-4-(3-amino-3-methylazetidin-1-yl)cyclohexyl)amino)-7H-pyrrolo[2,3-d]pyrimidin-5-yl)(2-chlorophenyl)methanone]	8.44
CC1(N)CN([C@H]2CC[C@H](Nc3ncnc4[nH]cc(C(=O)c5ccccc5Cl)c34)CC2)C1 [Compound I-114, (4-((trans-4-(3-amino-3-methylazetidin-1-yl)cyclohexyl)amino)-7H-pyrrolo[2,3-d]pyrimidin-5-yl)(2-chlorophenyl)methanone]	7.64
CC(C)(O)C(=O)N[C@H]1CC[C@@H](Nc2ncnc3[nH]cc(C(=O)c4ccccc4Cl)c23)CC1 [Compound I-115, N-(cis-4-((5-(2-chlorobenzoyl)-7H-pyrrolo[2,3-d]pyrimidin-4-yl)amino)cyclohexyl)-2-hydroxy-2-methylpropanamide]	8.24
CC(=O)N[C@@H](C)[C@@H]1CC[C@@H](Nc2ncnc3[nH]cc(C(=O)c4ccccc4Cl)c23)CO1 [Compound I-116, N—((S)-1-((2S,5R)-5-((5-(2-chlorobenzoyl)-7H-pyrrolo[2,3-d]pyrimidin-4-yl)amino)tetrahydro-2H-pyran-2-yl)ethyl)acetamide]	8.23
CC(=O)N[C@@H](C)[C@@H]1CC[C@@H](Nc2ncnc3[nH]cc(C(=O)c4ccccc4C)c23)CO1 [Compound I-117, N—((S)-1-((2S,5R)-5-((5-(2-methylbenzoyl)-7H-pyrrolo[2,3-d]pyrimidin-4-yl)amino)tetrahydro-2H-pyran-2-yl)ethyl)acetamide]	8.23
CC(=O)NC[C@@H]1CC[C@@H](Nc2ncnc3[nH]cc(C(=O)c4ccccc4Cl)c23)CO1 [Compound I-118, N-(((2S,5R)-5-((5-(2-chlorobenzoyl)-7H-pyrrolo[2,3-d]pyrimidin-4-yl)amino)tetrahydro-2H-pyran-2-yl)methyl)acetamide]	8.36
CC(=O)NC[C@@H]1CC[C@@H](Nc2ncnc3[nH]cc(C(=O)c4ccccc4C)c23)CO1 [Compound I-119, N-(((2S,5R)-5-((5-(2-methylbenzoyl)-7H-pyrrolo[2,3-d]pyrimidin-4-yl)amino)tetrahydro-2H-pyran-2-yl)methyl)acetamide]	8.29
CS(=O)(=O)Nc1cccc(C(=O)c2c[nH]c3ncnc(N[C@H]4CC[C@@H](N)CC4)c23)c1 [Compound I-120, N-(3-(4-((cis-4-aminocyclohexyl)amino)-7H-pyrrolo[2,3-d]pyrimidine-5-carbonyl)phenyl)methanesulfonamide]	6.92
N[C@H]1CC[C@@H](Nc2ncnc3[nH]cc(C(=O)c4cccc(NS(=O)(=O)c5ccccc5)c4)c23)CC1 [Compound I-121, N-(3-(4-((cis-4-aminocyclohexyl)amino)-7H-pyrrolo[2,3-d]pyrimidine-5-carbonyl)phenyl)benzenesulfonamide]	8.14
CC(=O)NC[C@@H]1CC[C@@H](Nc2ncnc3[nH]cc(C(=O)c4ccc(Oc5ccccc5)cc4Cl)c23)CO1 [Compound I-127, N-(((2S,5R)-5-((5-(2-chloro-4-phenoxybenzoyl)-7H-pyrrolo[2,3-d]pyrimidin-4-yl)amino)tetrahydro-2H-pyran-2-yl)methyl)acetamide]	8.79
N[C@H]1CC[C@@H](Nc2ncnc3[nH]cc(C(=O)c4ccc(Oc5ccccc5)cc4)c23)CC1 [Compound I-130, (4-((cis-4-aminocyclohexyl)amino)-7H-pyrrolo[2,3-d]pyrimidin-5-yl)(4-phenoxyphenyl)methanone]	8.49
N[C@H]1CC[C@@H](Nc2ncnc3[nH]cc(C(=O)c4cccc(Oc5ccccc5)c4)c23)CC1 [Compound I-131, (4-((cis-4-aminocyclohexyl)amino)-7H-pyrrolo[2,3-d]pyrimidin-5-yl)(3-phenoxyphenyl)methanone]	8.42
C[C@@H](O)[C@@H](CO)NC(=O)[C@@H]1CC[C@@H](Nc2ncnc3[nH]cc(C(=O)c4ccc(Oc5ccccc5)cc4)c23)CO1 [Compound I-175, (2S,5R)—N-((2R,3R)-1,3-dihydroxybutan-2-yl)-5-((5-(4-phenoxybenzoyl)-7H-pyrrolo[2,3-d]pyrimidin-4-yl)amino) tetrahydro-2H-pyran-2-carboxamide]	8.51
O=C(c1ccc(Oc2ccccc2)cc1)c1c[nH]c2ncnc(N[C@@H]3CC[C@@H](C(=O)NC[C@@H](O)CO)OC3)c12 [Compound I-176, (2S,5R)—N—((R)-2,3-dihydroxypropyl)-5-((5-(4-phenoxybenzoyl)-7H-pyrrolo[2,3-d]pyrimidin-4-yl)amino)tetrahydro-2H-pyran-2-carboxamide]	8.60
CN(C)C[C@]1(O)CC[C@H](Nc2ncnc3[nH]cc(C(=O)c4ccc(Oc5ccccc5)cc4Cl)c23)CC1 [Compound I-177, (2-chloro-4-phenoxyphenyl)(4-((trans-4-((dimethylamino)methyl)-4-hydroxycyclohexyl)amino)-7H-pyrrolo[2,3-d]pyrimidin-5-yl)methanone]	8.77
CN(C)C[C@]1(O)CC[C@@H](Nc2ncnc3[nH]cc(C(=O)c4ccc(Oc5ccccc5)cc4Cl)c23)CC1 [Compound I-178, (2-chloro-4-phenoxyphenyl)(4-((cis-4-((dimethylamino)methyl)-4-hydroxycyclohexyl)amino)-7H-pyrrolo[2,3-d]pyrimidin-5-yl)methanone]	8.66
CN(C)CC(=O)N[C@H]1CC[C@@H](Nc2ncnc3[nH]cc(C(=O)c4ccc(Oc5ccccc5)cc4Cl)c23)CC1 [Compound I-181, N-(cis-4-((5-(2-chloro-4-phenoxybenzoyl)-7H-pyrrolo[2,3-d]pyrimidin-4-yl)amino)cyclohexyl)-2-(dimethylamino)acetamide]	9.01
C[C@@H](O)[C@@H]1CC[C@@H](Nc2ncnc3[nH]cc(C(=O)c4ccc(Oc5cccc(F)c5)cc4Cl)c23)CO1 [Compound I-182, (2-chloro-4-(3-fluorophenoxy)phenyl)(4-(((3R,6S)-6-((R)-1-hydroxyethyl)tetrahydro-2H-pyran-3-yl)amino)-7H-pyrrolo[2,3-d]pyrimidin-5-yl)methanone]	8.82
C[C@@H](O)[C@@H]1CC[C@@H](Nc2ncnc3[nH]cc(C(=O)c4ccc(Oc5cccc(Cl)c5)cc4Cl)c23)CO1 [Compound I-183, (2-chloro-4-(3-chlorophenoxy)phenyl)(4-(((3R,6S)-6-((R)-1-hydroxyethyl)tetrahydro-2H-pyran-3-yl)amino)-7H-pyrrolo[2,3-d]pyrimidin-5-yl)methanone]	8.66
CC(C)(C)OC(=O)N[C@H]1CC[C@H](Nc2ncnc3[nH]cc(C(=O)c4ccc(Oc5ccccc5)cc4)c23)C1 [Compound I-184, tert-butyl ((1S,3S)-3-((5-(4-phenoxybenzoyl)-7H-pyrrolo[2,3-d]pyrimidin-4-yl)amino)cyclopentyl)carbamate]	7.21
CC(C)(C)OC(=O)N[C@H]1C[C@H](Nc2ncnc3[nH]cc(C(=O)c4ccc(Oc5ccccc5)cc4)c23)C1 [Compound I-185, tert-butyl (trans-3-((5-(4-phenoxybenzoyl)-7H-pyrrolo[2,3-d]pyrimidin-4-yl)amino)cyclobutyl)carbamate]	7.24
CC(C)(C)OC(=O)N[C@H]1C[C@@H](Nc2ncnc3[nH]cc(C(=O)c4ccc(Oc5ccccc5)cc4)c23)C1 [Compound I-186, tert-butyl (cis-3-((5-(4-phenoxybenzoyl)-7H-pyrrolo[2,3-d]pyrimidin-4-yl)amino)cyclobutyl)carbamate]	7.92
O=C(c1ccc(Oc2ccccc2)cc1)c1c[nH]c2ncnc(N[C@H]3C[C@H](CO)C3)c12 [Compound I-187, (4-((trans-3-(hydroxymethyl)cyclobutyl)amino)-7H-pyrrolo[2,3-d]pyrimidin-5-yl)(4-phenoxyphenyl)methanone]	8.38
CC(C)(O)[C@@H]1CC[C@@H](Nc2ncnc3[nH]cc(C(=O)c4ccc(Oc5ccccc5)cc4Cl)c23)CO1 [Compound I-188, (2-chloro-4-phenoxyphenyl)(4-(((3R,6S)-6-(2-hydroxypropan-2-yl)tetrahydro-2H-pyran-3-yl)amino)-7H-pyrrolo[2,3-d]pyrimidin-5-yl)methanone]	8.77
N[C@@H]1CC[C@@H](Nc2ncnc3[nH]cc(C(=O)c4ccc(Oc5ccccc5)cc4)c23)C1 [Compound I-189, (4-(((1R,3R)-3-aminocyclopentyl)amino)-7H-pyrrolo[2,3-d]pyrimidin-5-yl)(4-phenoxyphenyl)methanone]	7.77
